# Values joined by “and” are separate entries in the source; they are usually repeats but may differ in a detail not shown here. Equal values may be shown once.
# How the values were obtained:
# [1] = system: VanG phenotype (vanG); conditions: allele vanG; cited from earlier work
# [2] = system: VanD phenotype (vanD); conditions: allele vanD; cited from earlier work
# [3] = system: VanA phenotype (vanA); conditions: allele vanA; cited from earlier work
# [4] = system: VanE phenotype (vanE); conditions: allele vanE; cited from earlier work
# [5] = system: VanB phenotype (vanB); conditions: allele vanB; cited from earlier work
# [6] = system: VanC phenotype (vanC); conditions: allele vanC; cited from earlier work
# [7] = system: E. faecalis (ATCC No. 700802, strain V583, vanB) gDNA; experiment: Real-time PCR on E. faecalis (vanB) gDNA; conditions: Input E. faecalis (ATCC No. 700802, strain V583, vanB) gDNA; duplicate reactions; oligos 400 nM each
# Experimental: (§1) The oligonucleotide sequences listed in Table 5 were tested for their ability to amplify their intended target sequences. About 25 μL PCRs were formulated using iQTM Supermix for qPCR (BioRad) and oligos at a final concentration of 400 nM each.
# (§2) Genomic DNA isolated from E. faecium (ATCC No. 5159, strain MMC4, vanA) and E. faecalis (ATCC No. 700802, strain V583, vanB) were loaded into real-time PCRs using oligonucleotide solutions specific for vanA and vanB. The specificity of the oligonucleotide solutions was assessed by attempting to amplify E. faecalis (vanB) gDNA with vanA oligos and E. faecium (vanA) gDNA with vanB oligos. Amplification plots are illustrated in FIGS. 1 and 2, which show detection of vanA and vanB. Synthetic constructs encoding the vanA and vanB targets were amplified and compared to duplicate reactions where E. faecium (ATCC No. 5159, strain MMC4, vanA) and E. faecalis (ATCC No. 700802, strain V583, vanB) gDNA was amplified.
# (§3) PCRs were run on the ABI 7500 with the following Thermal protocol: • 95° C. 5 minute, initial denaturation • 50 cycles of: • 95° C. 15 sec, denaturation, and • 60° C. 1 min, annealing/extension […]
# [8] = system: E. faecalis vanB synthetic construct; experiment: Real-time PCR amplification of vanB synthetic construct; conditions: Input synthetic construct (vanB); oligos 400 nM each; ABI 7500, 50 cycles
# Experimental: as §1, §2, §3
# [9] = system: E. faecium (ATCC No. 5159, strain MMC4, vanA) gDNA; experiment: Real-time PCR on E. faecium (vanA) gDNA; conditions: Input E. faecium (ATCC No. 5159, strain MMC4 vanA) gDNA; duplicate reactions; oligos 400 nM each
# Experimental: as §1, §2, §3
# [10] = system: E. faecium vanA synthetic construct; experiment: Real-time PCR amplification of vanA synthetic construct; conditions: Input synthetic construct (vanA); oligos 400 nM each; ABI 7500, 50 cycles
# Experimental: as §1, §2, §3
Molecule,MIC [1],MIC [2],MIC [3],MIC [4],MIC [5],MIC [6],Ct [7],Ct [8],Ct [9],Ct [10]
teicoplanin,0.5 (sensitive) μg/mL,4 (moderate) μg/mL,16-512 (high) μg/mL,0.5 (sensitive) μg/mL,≦0.5 (sensitive) μg/mL,≦0.5 (sensitive) μg/mL,–,–,–,–
CN[C@H](CC(C)C)C(=O)N[C@H]1C(=O)N[C@@H](CC(N)=O)C(=O)N[C@H]2C(=O)N[C@H]3C(=O)N[C@H](C(=O)N[C@H](C(=O)O)c4cc(O)cc(O)c4-c4cc3ccc4O)[C@H](O)c3ccc(c(Cl)c3)Oc3cc2cc(c3O[C@@H]2O[C@H](CO)[C@@H](O)[C@H](O)[C@H]2O[C@H]2C[C@](C)(N)[C@H](O)[C@H](C)O2)Oc2ccc(cc2Cl)[C@H]1O [vancomycin],12-16 (low) μg/mL,128 (moderate) μg/mL,–,16 (low) μg/mL,4-1024 (can be high) μg/mL,2-32 (low) μg/mL,–,–,–,–
"vanB: vanB oligonucleotide solution: SEQ ID NOS: 103, 108, and 66 (nucleic acid, chemistry not given here) DNA 1: TTACCTACCCTGTCTTTGTGAA DNA 2: CAGGTTCGTCCTTTGGCGTAACCA DNA 3: GCTCAATTAAGATTTTTCCATCATATTGTC",–,–,–,–,–,–,21.85 and 21.53,24.04,UND,–
"vanA: vanA oligonucleotide solution: SEQ ID NO: 1, 2, and 5 (nucleic acid, chemistry not given here) DNA 1: TTGTGCGGTATTGGGAAACAGT DNA 2: TGATTTGGTCCACCTCGCCAACAACTAACGC DNA 3: CTCGACTTCCTGATGAATACGAAAGATTC",–,–,–,–,–,–,UND,–,19.67 and 19.80,23.36

# Reference: US20160138088A1, “OPTIMIZED PROBES AND PRIMERS AND METHODS OF USING SAME FOR THE DETECTION, SCREENING, ISOLATION AND SEQUENCING OF VANCOMYCIN RESISTANCE GENES AND VANCOMYCIN RESISTANT ENTEROCOCCI” (priority 2009, published 2016)
